Three molecules from US9927437B2, “Treating neurodegenerative disease” (THE BRIGHAM AND WOMEN'S HOSPITAL, INC., priority 2013, dated 2018) can be followed below.

One data set has as its system B4GALT5/6. The data set is described as follows: Quantification of LacCer levels in the CNS (LC-MS/MS). Type of data set: in vivo, mouse. The settings on record: NOD EAE. On the procedure:
Chemical standards of LacCer (d18:1/16:0) and LacCer (d18:1/18:0) were obtained from Avanti Polar Lipids. Quantification of LacCer (d18:1/16:0) and LacCer (d18:1/18:0) was achieved by LC-MS/MS analysis performed on an Agilent (Agilent Technologies, Santa Clara, Calif.) 6460 triple-quadrupole LC/MS/MS system. The fragments from the [M+H]^+ ions for LacCer and internal standard were subjected to collision induced dissociation and the two major types of fragment ions were monitored via electrospray ionization in the positive ion mode in multiple reaction monitoring (MRM) mode for each ion. These two MRM transitions corresponded to the loss of the neutral lactosyl moiety, and to the formation of the lactose ion. Specifically, the MRM transitions used for quantification for LacCer (d18:1/16:0) and LacCer(d18:1/18:0) were 862.5>[…] and 890.6>548.5, respectively. Secondary confirmatory MRM transitions for LacCer(d18:1/16:0) and LacCer(d18:1/18:0) of 862.5>264.3 and 890.6>264.3 were also monitored. Mass spectrometer parameter settings were gas temp (325° C.), gas flow (12 L/min), nebulizer (25 psi), sheath gas temp (400° C.), sheath gas flow (12 L/min), capillary voltage (4000v), and nozzle voltage (500v). Liquid chromatography conditions with an a Phenomenex Gemini C18 column 4.6×50 mm 5 μm particle size was used for separation. Chromatography method the following flow rate=0.4 mLs/min; solvent A=5 mM ammonium formate in 5% MeOH and 0.1% formic acid v/v/v; solvent B=80% 2-propanol, 15% methanol, 5% water and 0.1% formic acid (v/v/v/v). […] Standard curve mixture was analyzed at various concentrations between 0.10 nM to 3.3 μM in LacCer (d18:1/16:0) and an internal standard concentration of 1 μM. The lower limit of quantification was estimated at 1 nM and a R^2 of 0.9969 was obtained using linear regression analysis. […]
The brain tissue was weighed and homogenized using a Dounce homogenizer (VWR), in the extraction solvent using a Bligh and Dyer type liquid-liquid extraction. […] The dried sample was reconstituted in 100 μl of 2:1 chloroform-methanol, and analyzed using the HPLC-MS.

For the next data set, the system named is IRF-1. Description: IRF-1 translocation to the nucleus in astrocytes (western blot). Type of data set: cell-based, mouse. The settings on record: primary astrocytes, PDMP 25 μM or LacCer 10 μM, LPS/IFNγ 45 min. A general note: A western blot detects proteins with antibodies after separation by electrophoresis.
The next data set relates to Ly6C^high monocytes. The data set is described as follows: Response of Ly6C^high monocytes to LPS/IFNγ (nCounter). It counts as cell-based, mouse. As to conditions: LPS/IFNγ 6 h.
The test system of the next data set is primary mouse microglia. The data set is described as follows: Viability assay, microglia. It counts as cell-based. The settings on record: absence of astrocytes, LPS/IFNγ. An excerpt:
FIGS. 5a-m. B4GALT6 in astrocytes regulates the activation of microglia and CNS-infiltrating monocytes. (a) Heatmap depicting mRNA expression, as determined by nCounter Nanostring analysis, in microglia from naïve or EAE NOD mice treated with PDMP or vehicle. Representative data of three independent experiments. Statistical analysis by Student's t-test. (b) qPCR analysis of ccl5, il1b, opn, nos2, cd40, and H2-Aa gene expression relative to Gapdh. (c, d) Mean normalized expression of genes associated with M1- or M2-phenotype in microglia (Table 3) (c) and Ly6C^high monocytes (d). Statistical analysis by Student's t-test. (e-h) primary microglia were pre-treated with PDMP, LacCer, or vehicle, followed by activation with LPS/IFNγ for 6 h or left un-treated (control) as in (FIG. 3a). mRNA expression was determined by nCounter Nanostring analysis (e, g), and microglial viability was determined (f, h). Representative data of five independent experiments. […] RNA was harvested from microglia treated in the absence [MG (pure)] or presence [MG (mixed)] of astrocytes and gene expression was analyzed by qPCR for the expression ccl2, ccl5 and nos2 relative to gapdh. […] Microglia were isolated as in (i), and microglial-nos2 expression was determined by qRT relative to gapdh and presented as in (i). […]

Consider `CCCCCCCCCC(=O)N[C@H](CN1CCOCC1)[C@H](O)c1ccccc1` [PDMP, D-threo-1-phenyl-2-decanoylamino-3-morpholino-1-propanol], for which, in the data set on B4GALT5/6 (20 mg/kg twice a day from day 40), the “CNS LacCer levels” value was “significant decrease”. For the same molecule, in the data set with IRF-1, the “translocation of IRF-1 to the nucleus” value is “interfered with this process”. In addition, in the data set with Ly6C^high monocytes, the “monocyte response to LPS/IFNγ stimulation” value was “did not affect”. Further, the “viability of cultured primary mouse microglia” value with primary mouse microglia is “neither the viability nor the response of cultured primary mouse microglia to LPS/IFNγ was affected”.

As to lactosylceramide [LacCer], the “translocation of IRF-1 to the nucleus” value in the data set with IRF-1 was “enhanced the translocation of IRF-1 to the nucleus”. In addition, the “monocyte response to LPS/IFNγ stimulation” value in the data set on Ly6C^high monocytes is “did not affect”. Besides, the “viability of cultured primary mouse microglia” value in the data set with primary mouse microglia is “neither the viability nor the response of cultured primary mouse microglia to LPS/IFNγ was affected”.

In the case of “shB4galt6: lentivirus-delivered shRNA against b4galt6 (TRCN0000334278; SEQ ID NO:3) (guide CGATGGACTGAACAATTTATTCTCGAGAATAAATTGTTCAGTCCACG)”, the “CNS LacCer levels” value in the data set with B4GALT5/6 (i.c.v. 1×10^7 IU lentivirus at day 35, 10 days after injection) was “significant decrease”.
